Experimental data reported in patent US11419869B2, “Dosage forms and regimens for amino acid compounds” (Pliant Therapeutics, Inc., priority 2019, dated 2022).

Each compound was assayed against recombinant human integrin αvβ6 (Homo sapiens (Human), UniProt P06756+P18564) (assay: Solid Phase Integrin αvβ6 Binding Assay (Examples B1, B2)). Details: TGFβ1 LAP ligand, values given in four ranges, read-out: αvβ6 Inhibition IC50 (nM)-range.
Outline: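 Plates coated with recombinant human αvβ6 (2 μg/mL) compete compound against recombinant TGFβ1 LAP (0.67 μg/mL) in TBS binding buffer with 0.5 mM MnCl2, 2 h at 25 °C. Bound LAP detected with biotin-anti-hLAP and peroxidase-streptavidin; IC50 by four-parameter logistic regression.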

Chain of recombinant human integrin αvβ6 (P06756 31-992): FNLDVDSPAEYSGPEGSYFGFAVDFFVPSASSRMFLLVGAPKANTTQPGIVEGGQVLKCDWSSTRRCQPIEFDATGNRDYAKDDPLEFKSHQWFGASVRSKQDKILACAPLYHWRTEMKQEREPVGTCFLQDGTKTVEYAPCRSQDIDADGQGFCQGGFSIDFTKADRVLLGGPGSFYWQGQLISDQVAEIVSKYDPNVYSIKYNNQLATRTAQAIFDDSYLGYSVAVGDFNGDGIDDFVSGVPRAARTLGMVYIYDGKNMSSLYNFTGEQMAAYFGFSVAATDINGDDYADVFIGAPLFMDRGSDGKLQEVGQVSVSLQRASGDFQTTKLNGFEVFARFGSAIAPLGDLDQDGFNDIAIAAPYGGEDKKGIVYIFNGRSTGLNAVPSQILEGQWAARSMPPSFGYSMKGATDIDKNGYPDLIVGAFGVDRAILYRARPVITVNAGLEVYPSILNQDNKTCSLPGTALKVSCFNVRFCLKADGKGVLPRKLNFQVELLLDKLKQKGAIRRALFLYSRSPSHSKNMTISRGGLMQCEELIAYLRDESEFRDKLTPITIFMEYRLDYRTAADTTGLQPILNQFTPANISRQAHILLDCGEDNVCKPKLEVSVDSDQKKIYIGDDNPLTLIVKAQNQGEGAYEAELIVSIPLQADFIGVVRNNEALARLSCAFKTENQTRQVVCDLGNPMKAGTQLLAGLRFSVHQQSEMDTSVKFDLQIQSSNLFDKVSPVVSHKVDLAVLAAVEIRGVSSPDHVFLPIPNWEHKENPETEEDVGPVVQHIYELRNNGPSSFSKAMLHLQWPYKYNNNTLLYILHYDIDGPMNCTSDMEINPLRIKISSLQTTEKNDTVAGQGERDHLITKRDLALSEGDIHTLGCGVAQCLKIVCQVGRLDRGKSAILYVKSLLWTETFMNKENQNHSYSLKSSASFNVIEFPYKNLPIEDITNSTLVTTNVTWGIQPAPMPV
Chain of recombinant human integrin αvβ6 (P18564 22-707): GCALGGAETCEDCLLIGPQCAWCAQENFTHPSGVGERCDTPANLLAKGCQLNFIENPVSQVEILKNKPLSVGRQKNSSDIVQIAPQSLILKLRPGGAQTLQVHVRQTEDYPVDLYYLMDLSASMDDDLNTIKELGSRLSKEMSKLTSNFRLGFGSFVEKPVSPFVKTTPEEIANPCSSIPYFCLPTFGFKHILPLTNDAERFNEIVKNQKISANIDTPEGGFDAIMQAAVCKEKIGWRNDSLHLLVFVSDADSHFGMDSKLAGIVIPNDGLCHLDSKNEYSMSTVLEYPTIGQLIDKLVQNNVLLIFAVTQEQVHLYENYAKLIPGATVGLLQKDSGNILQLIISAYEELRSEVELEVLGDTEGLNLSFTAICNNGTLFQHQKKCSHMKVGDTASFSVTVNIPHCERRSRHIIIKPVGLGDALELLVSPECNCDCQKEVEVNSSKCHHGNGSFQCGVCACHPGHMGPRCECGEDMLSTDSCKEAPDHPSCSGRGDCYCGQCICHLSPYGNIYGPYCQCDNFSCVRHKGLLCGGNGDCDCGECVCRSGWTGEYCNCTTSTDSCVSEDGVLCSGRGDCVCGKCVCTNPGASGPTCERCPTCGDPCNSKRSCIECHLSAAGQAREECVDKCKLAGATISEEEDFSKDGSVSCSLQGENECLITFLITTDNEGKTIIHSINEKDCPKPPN

Row | IC50 [nM] | Structure (SMILES)
1 | < 50 | COCCN(CCCCc1ccc2c(n1)NCCC2)CC[C@H](Nc1ncnc2cccc(F)c12)C(=O)O [Compound 18, (S)-2-((5-fluoroquinazolin-4-yl)amino)-4-((2-methoxyethyl) (4-(5,6,7,8-tetrahydro-1,8-naphthyridin-2-yl)butyl)amino) butanoic acid]
2 | > 1000 | O=C(O)[C@H](CCN(CCCCc1ccc2c(n1)NCCC2)CC(F)F)Nc1ncc(C(F)(F)F)cn1 [Compound 95, (S)-4-((2,2-difluoroethyl) (4-(5,6,7,8-tetrahydro-1,8-naphthyridin-2-yl)butyl)amino)-2-((5-(trifluoromethyl)pyrimidin-2-yl)amino) butanoic acid]
3 | < 50 | CO[C@H](C)CN(CCCCc1ccc2c(n1)NCCC2)CC[C@H](Nc1ncc(Br)cn1)C(=O)O [Compound 70, (S)-2-((5-bromopyrimidin-2-yl)amino)-4-(((R)-2-methoxypropyl) (4-(5,6,7,8-tetrahydro-1,8-naphthyridin-2-yl)butyl)amino) butanoic acid]
4 | < 50 | CO[C@H](C)CN(CCCCc1ccc2c(n1)NCCC2)CC[C@H](Nc1ncnc2[nH]ncc12)C(=O)O [Compound 71, (S)-2-((1H-pyrazolo[3,4-d]pyrimidin-4-yl)amino)-4-(((R)-2-methoxypropyl) (4-(5,6,7,8-tetrahydro-1,8-naphthyridin-2-yl)butyl)amino) butanoic acid]
5 | < 50 | CO[C@H](C)CN(CCCCc1ccc2c(n1)NCCC2)CC[C@H](Nc1ccncn1)C(=O)O [Compound 106, (S)-4-(((R)-2-methoxypropyl) (4-(5,6,7,8-tetrahydro-1,8-naphthyridin-2-yl)butyl)amino)-2-(pyrimidin-4-ylamino) butanoic acid]
6 | < 50 | O=C(O)[C@H](CCN(CCCCc1ccc2c(n1)NCCC2)CCOc1ccccc1)Nc1cc(-n2cccn2)ncn1 [Compound 91, (S)-2-((6-(1H-pyrazol-1-yl)pyrimidin-4-yl)amino)-4-((2-phenoxyethyl) (4-(5,6,7,8-tetrahydro-1,8-naphthyridin-2-yl)butyl)amino) butanoic acid]
7 | < 50 | COC[C@@H](F)CN(CCCCc1ccc2c(n1)NCCC2)CC[C@H](Nc1ncnc2c1cnn2C)C(=O)O [Compound 105, (S)-4-(((S)-2-fluoro-3-methoxypropyl) (4-(5,6,7,8-tetrahydro-1,8-naphthyridin-2-yl)butyl)amino)-2-((1-methyl-1H-pyrazolo[3,4-d]pyrimidin-4-yl)amino) butanoic acid]
8 | < 50 | Cc1nc(N[C@@H](CCN(CCCCc2ccc3c(n2)NCCC3)CCOC2CC2(F)F)C(=O)O)c2ccc(F)cc2n1 (stereo partly drawn) [Compound 42, (2S)-4-((2-(2,2-difluorocyclopropoxy)ethyl) (4-(5,6,7,8-tetrahydro-1,8-naphthyridin-2-yl)butyl)amino)-2-((7-fluoro-2-methylquinazolin-4-yl)amino) butanoic acid]
9 | < 50 | O=C(O)[C@H](CCN(CCCCc1ccc2c(n1)NCCC2)CCOc1ccccc1)Nc1ncnc2ccccc12 [Compound 28, (S)-4-((2-phenoxyethyl) (4-(5,6,7,8-tetrahydro-1,8-naphthyridin-2-yl)butyl)amino)-2-(quinazolin-4-ylamino) butanoic acid]
10 | < 50 | O=C(O)[C@H](CCN(CCCF)CCCCc1ccc2c(n1)NCCC2)Nc1ncnc2ccccc12 [Compound 30, (S)-4-((3-fluoropropyl) (4-(5,6,7,8-tetrahydro-1,8-naphthyridin-2-yl)butyl)amino)-2-(quinazolin-4-ylamino) butanoic acid]
11 | < 50 | COCCN(CCCCc1ccc2c(n1)NCCC2)CC[C@H](Nc1ccnc(C(F)(F)F)n1)C(=O)O [Compound 24, (S)-4-((2-methoxyethyl) (4-(5,6,7,8-tetrahydro-1,8-naphthyridin-2-yl)butyl)amino)-2-((2-(trifluoromethyl)pyrimidin-4-yl)amino) butanoic acid]
12 | < 50 | O=C(O)[C@H](CCN(CCCCc1ccc2c(n1)NCCC2)CCOc1ccccc1)Nc1cc(-c2ccccc2)ncn1 [Compound 93, (S)-4-((2-phenoxyethyl) (4-(5,6,7,8-tetrahydro-1,8-naphthyridin-2-yl)butyl)amino)-2-((6-phenylpyrimidin-4-yl)amino) butanoic acid]
13 | < 50 | COCCN(CCCCc1ccc2c(n1)NCCC2)CC[C@H](Nc1nc(C(F)(F)F)nc2ccccc12)C(=O)O [Compound 14, (S)-4-((2-methoxyethyl) (4-(5,6,7,8-tetrahydro-1,8-naphthyridin-2-yl)butyl)amino)-2-((2-(trifluoromethyl)quinazolin-4-yl)amino) butanoic acid]
14 | < 50 | Cn1ncc2c(N[C@@H](CCN(CCCF)CCCCc3ccc4c(n3)NCCC4)C(=O)O)ncnc21 [Compound 136, (S)-4-((3-fluoropropyl) (4-(5,6,7,8-tetrahydro-1,8-naphthyridin-2-yl)butyl)amino)-2-((1-methyl-1H-pyrazolo[3,4-d]pyrimidin-4-yl)amino) butanoic acid]
15 | < 50 | COCCN(CCCCc1ccc2c(n1)NCCC2)CC[C@H](Nc1ncnc2ccc(F)cc12)C(=O)O [Compound 19, (S)-2-((6-fluoroquinazolin-4-yl)amino)-4-((2-methoxyethyl) (4-(5,6,7,8-tetrahydro-1,8-naphthyridin-2-yl)butyl)amino) butanoic acid]
16 | < 50 | O=C(O)[C@H](CCN(CCCF)CCCCc1ccc2c(n1)NCCC2)Nc1ncc(C(F)(F)F)cn1 [Compound 137, (S)-4-((3-fluoropropyl) (4-(5,6,7,8-tetrahydro-1,8-naphthyridin-2-yl)butyl)amino)-2-((5-(trifluoromethyl)pyrimidin-2-yl)amino) butanoic acid]

What follows are compounds tested on Type I Collagen gene Col1a1 expression (assay: Precision cut lung slices, mice under acute bleomycin exposure (Example B8)). Details: 3 days culture, normalized to DMSO, FIG. 5A.
Assay type: cell-based
Protocol: Mice (C57BL/6) were administered 3 U/kg of bleomycin (Teva Pharmaceuticals; North Wales, Pa.) on day 0 via oropharyngeal aspiration while under anesthesia. On day 14, precision cut lung slices were obtained. Following euthanization, 2% low gelling temp agarose was injected into the mouse lungs via the trachea. […] The lobes were then subjected to precision slicing to obtain samples for culture using a microtome (Compresstome VF-300-0Z, Precisionary; Greenville, N.C.). Individual slices were distributed in a multiwell culture plate and cultured for 3 days under control (DMSO) and test compound conditions.

Row | Structure (SMILES) | Type I Collagen gene Col1a1 expression
17 | CC(C)(C)c1cc(Br)cc([C@H](CC(=O)O)NC(=O)CNC(=O)c2cc(O)cc(NC3=NCC(O)CN3)c2)c1 (stereo partly drawn) [second pan-av small molecule inhibitor, (3S)—N-[3-hydroxy-5-[(1,4,5,6-tetrahydro-5-hydroxy-2-pyrimidinyl)amino]benzoyl]glycyl-3-[3-bromo-5-(1,1-dimethylethyl)phenyl]-β-alanine] | reduced Type I Collagen gene Col1a1 expression
